From the NIST ThermoML archive (doi:10.1021/je050367p)
± gives the expanded uncertainty stated by the source.

Test: xn = mol fraction of the nth substance listed
Conditions: 100.8 kPa, Liquid; for viscosity: Capillary tube (Ostwald / Ubbelohde) method

CC(C)OC(C)C [diisopropyl ether] + CC(C)CC(C)(C)C
Conditions | mass density, 288.15 K [kg/m3] | mass density, 298.15 K [kg/m3] | mass density, 308.15 K [kg/m3] | viscosity, 298.15 K [mPa·s] | viscosity, 308.15 K [mPa·s]
x1 = 0.05 | – | 688.86 ± 0.31 | 680.44 ± 0.32 | 0.468 ± 0.007 | 0.422 ± 0.007
x1 = 0.1 | – | 690.03 ± 0.31 | 681.52 ± 0.32 | 0.456 ± 0.007 | 0.412 ± 0.007
x1 = 0.15 | – | 691.23 ± 0.31 | 682.62 ± 0.32 | 0.445 ± 0.007 | 0.402 ± 0.007
x1 = 0.2 | – | 692.45 ± 0.31 | 683.75 ± 0.32 | 0.435 ± 0.007 | 0.393 ± 0.007
x1 = 0.25 | – | 693.75 ± 0.31 | 684.95 ± 0.32 | 0.425 ± 0.007 | 0.384 ± 0.007
x1 = 0.3 | – | 695.08 ± 0.31 | 686.17 ± 0.32 | 0.415 ± 0.007 | 0.375 ± 0.007
x1 = 0.35 | – | 696.43 ± 0.31 | 687.42 ± 0.32 | 0.406 ± 0.007 | 0.367 ± 0.007
x1 = 0.4 | – | 697.84 ± 0.31 | 688.72 ± 0.32 | 0.397 ± 0.007 | 0.359 ± 0.007
x1 = 0.45 | – | 699.26 ± 0.31 | 690.03 ± 0.32 | 0.388 ± 0.007 | 0.351 ± 0.007
x1 = 0.5 | – | 700.76 ± 0.31 | 691.42 ± 0.32 | 0.38 ± 0.007 | 0.343 ± 0.007
x1 = 0.55 | 711.64 ± 0.3 | 702.32 ± 0.31 | 692.86 ± 0.32 | 0.372 ± 0.007 | 0.336 ± 0.006
x1 = 0.6 | 713.36 ± 0.3 | 703.94 ± 0.31 | 694.35 ± 0.31 | 0.364 ± 0.007 | 0.329 ± 0.006
x1 = 0.65 | 715.15 ± 0.3 | 705.61 ± 0.31 | 695.92 ± 0.31 | 0.357 ± 0.007 | 0.323 ± 0.006
x1 = 0.7 | 716.97 ± 0.3 | 707.32 ± 0.31 | 697.5 ± 0.31 | 0.35 ± 0.007 | 0.316 ± 0.006
x1 = 0.75 | 718.85 ± 0.3 | 709.08 ± 0.31 | 699.14 ± 0.31 | 0.343 ± 0.007 | 0.31 ± 0.006
x1 = 0.8 | 720.8 ± 0.3 | 710.9 ± 0.31 | 700.83 ± 0.31 | 0.337 ± 0.006 | 0.305 ± 0.006
x1 = 0.85 | 722.8 ± 0.3 | 712.78 ± 0.3 | 702.59 ± 0.31 | 0.33 ± 0.006 | 0.299 ± 0.006
x1 = 0.9 | 724.9 ± 0.3 | 714.75 ± 0.3 | 704.42 ± 0.31 | 0.325 ± 0.006 | 0.294 ± 0.006
x1 = 0.9499 | 727 ± 0.3 | 716.73 ± 0.3 | 706.28 ± 0.31 | 0.319 ± 0.006 | 0.288 ± 0.006
x1 = 1 | 729.09 ± 0.3 | 718.7 ± 0.3 | 708.12 ± 0.31 | 0.313 ± 0.006 | 0.283 ± 0.006
